Source: ChEMBL document CHEMBL5518178 (Eur J Med Chem, 2024)
Activity calls are given as the source filed them. The rule behind the calls is not given here.

Experiments:
[1] = Toxicity in BALB/c-nude mouse xenografted with human MGC-803 cells assessed as alteration in liver tissue at 30 mg/kg/day, ip administered for 18 days by hematoxylin and eosin staining based analysis; assay type: organism-based; conditions: in vivo, 432 h, time 18 day
MGC-803 [2] = assay: Antiproliferative activity against human MGC-803 cells assessed as reduction in cell viability at 20 to 80 nmol/L by MTT assay; assay type: functional, cell-based; conditions: dose 20-80 nmol/L, time 12-48 hrs, TDE = time-dependent effect
[3] = Toxicity in BALB/c-nude mouse xenografted with human MGC-803 cells assessed as alteration in kidney tissue at 30 mg/kg/day, ip administered for 18 days by hematoxylin and eosin staining based analysis; assay type: organism-based; conditions: in vivo, 432 h, time 18 day
MGC-803 [4] = assay: Induction of apoptosis in human MGC-803 cells assessed as decrease in Bcl-xL protein level at 10 to 40 nmol/L incubated for 48 hrs by Western blotting; assay type: functional, cell-based; conditions: dose 10-40 nmol/L
[5] = Toxicity in BALB/c-nude mouse xenografted with human MGC-803 cells assessed as change in body weight at 30 mg/kg/day, ip administered for 18 days; assay type: organism-based; conditions: in vivo, 432 h, time 18 day
MGC-803 [6] = assay: Antiproliferative activity against human MGC-803 cells assessed as inhibition of cell growth incubated for 48 hrs by MTT assay; assay type: functional, cell-based; conditions: MGC-803, 48 h
[7] = Toxicity in BALB/c-nude mouse xenografted with human MGC-803 cells assessed as abnormal behaviour at 30 mg/kg/day, ip administered for 18 days; assay type: organism-based; conditions: in vivo, 432 h, time 18 day
Tubulin (Homo sapiens) [8] = target: T1, Tubulin (Homo sapiens) (UniProt P68371+Q9H4B7+P0DPH7+P68366+Q13509+Q71U36+P04350+Q3ZCM7+P07437+P68363+Q9BQE3+Q6PEY2+Q13885+Q9BVA1+Q9BUF5); assay: Inhibition of tubulin polymerization in human MGC-803 cells assessed as reduction in filamentous microtubule structure formation at 10 to 40 nmol/L incubated for 48 hrs by DAPI staining based fluorescence microscopic analysis; assay type: cell-based; conditions: dose 10-40 nmol/L
[9] = target: T2, Tubulin beta (Homo sapiens) (UniProt P68371+Q9H4B7+Q13509+P04350+Q3ZCM7+P07437+Q13885+Q9BVA1+Q9BUF5+A6NNZ2); assay: Binding affinity to beta-tubulin (unknown origin) colchicine binding site assessed as reduction in beta-tubulin-EBI adduct at 10 to 30 uM incubated for 2 hrs in presence of EBI by Western blotting; assay type: protein assay; conditions: dose 10-30 µM
MGC-803 [10] = assay: Induction of apoptosis in human MGC-803 cells assessed as early apoptotic cells at 10 nmol/L incubated for 48 hrs by Annexin V-FITC/propidium iodide staining based flow cytometer analysis (reference value: 4.38 %); assay type: functional
MGC-803 [11] = assay: Induction of apoptosis in human MGC-803 cells assessed as caspase-7 cleavage at 10 to 40 nmol/L incubated for 48 hrs by Western blotting; assay type: functional, cell-based; conditions: dose 10-40 nmol/L
MGC-803 [12] = assay: Induction of apoptosis in human MGC-803 cells assessed as late apoptotic cells at 20 nmol/L incubated for 48 hrs by Annexin V-FITC/propidium iodide staining based flow cytometer analysis (reference value: 2.22 %); assay type: functional
MGC-803 [13] = assay: Induction of apoptosis in human MGC-803 cells assessed as early apoptotic cells at 20 nmol/L incubated for 48 hrs by Annexin V-FITC/propidium iodide staining based flow cytometer analysis (reference value: 4.38 %); assay type: functional
MGC-803 [14] = assay: Induction of apoptosis in human MGC-803 cells assessed as viable cells at 20 nmol/L incubated for 48 hrs by Annexin V-FITC/propidium iodide staining based flow cytometer analysis (reference value: 93.08 %); assay type: functional; conditions: read-out: Activity
MGC-803 [15] = assay: Antitumor activity against human MGC-803 cells xenografted in BALB/c-nude mouse assessed as tumor weight at 30 mg/kg/day, ip administered for 18 days (reference value: 0.656 g); assay type: functional; conditions: time 18 day
MGC-803 [16] = assay: Anti-migratory activity against human MGC-803 cells assessed as inhibition of cell migration at lower concentration measured for 48 hrs by wound healing assay; assay type: functional, cell-based
MGC-803 [17] = assay: Antitumor activity against human MGC-803 cells xenografted in BALB/c-nude mouse assessed as tumor growth inhibition at 30 mg/kg/day, ip administered for 18 days relative to control; assay type: functional; conditions: MGC-803, 432 h, time 18 day, read-out: TGI
MGC-803 [18] = assay: Induction of apoptosis in human MGC-803 cells assessed as late apoptotic cells at 10 nmol/L incubated for 48 hrs by Annexin V-FITC/propidium iodide staining based flow cytometer analysis (reference value: 2.22 %); assay type: functional
KYSE-30 = assay: Antiproliferative activity against human KYSE-30 cells assessed as inhibition of cell growth incubated for 48 hrs by MTT assay; assay type: functional, cell-based; conditions: KYSE-30, 48 h
MGC-803 [19] = assay: Antitumor activity against human MGC-803 cells xenografted in BALB/c-nude mouse assessed as tumor growth rate at 30 mg/kg/day, ip administered for 18 days relative to control; assay type: functional; conditions: time 18 day
MGC-803 [20] = assay: Antiproliferative activity against human MGC-803 cells assessed as increase in proportion of dead cells at 10 to 40 nmol/L incubated for 48 hrs by Calcein-AM/propidium iodide staining based fluorescence microscopic analysis; assay type: functional, cell-based; conditions: dose 10-40 nmol/L
MGC-803 [21] = assay: Anti-migratory activity against human MGC-803 cells assessed as decrease in MMP-9 level at 10 to 40 nmol/L by Western blotting; assay type: functional, cell-based; conditions: dose 10-40 nmol/L
[22] = Toxicity in BALB/c-nude mouse xenografted with human MGC-803 cells assessed as alteration in heart tissue at 30 mg/kg/day, ip administered for 18 days by hematoxylin and eosin staining based analysis; assay type: organism-based; conditions: in vivo, 432 h, time 18 day
MGC-803 [23] = assay: Antiproliferative activity against human MGC-803 cells assessed as decrease in cell damage at 10 to 40 nmol/L incubated for 48 hrs by bright field microscopic analysis; assay type: functional, cell-based; conditions: dose 10-40 nmol/L
MGC-803 [24] = assay: Anti-migratory activity against human MGC-803 cells assessed as decrease in MMP-2 level at 10 to 40 nmol/L by Western blotting; assay type: functional, cell-based; conditions: dose 10-40 nmol/L
[25] = target: T2, Tubulin beta (Homo sapiens); assay: Binding affinity to beta-tubulin (unknown origin) assessed as increase in alkaline protease level at 1 to 100 uM preincubated for 1 hr followed by alkaline protease addition and measured after 15 mins by Western blotting analysis; assay type: protein assay; conditions: dose 1-100 µM, time 75.0 min
[26] = Toxicity in BALB/c-nude mouse xenografted with human MGC-803 cells assessed as alteration in spleen tissue at 30 mg/kg/day, ip administered for 18 days by hematoxylin and eosin staining based analysis; assay type: organism-based; conditions: in vivo, 432 h, time 18 day
MGC-803 [27] = assay: Inhibition of colony formation in human MGC-803 cells incubated for 7 days by crystal violet staining based analysis; assay type: functional, cell-based; conditions: dose 24-40 nmol/L, time 7.0 day
Tubulin (Homo sapiens) [28] = target: T1, Tubulin (Homo sapiens); assay: Inhibition of tubulin polymerization in human MGC-803 cells assessed as appearance of multinucleated cells at 10 to 40 nmol/L incubated for 48 hrs by DAPI staining based fluorescence microscopic analysis; assay type: cell-based; conditions: dose 10-40 nmol/L
Tubulin (Homo sapiens) [29] = target: T1, Tubulin (Homo sapiens); assay: Inhibition of tubulin polymerization (unknown origin) at 3 uM by fluorescence plate reader analysis; assay type: protein-complex assay
Tubulin (Homo sapiens) [30] = target: T1, Tubulin (Homo sapiens); assay: Inhibition of tubulin polymerization (unknown origin) at 1 to 3 uM by fluorescence plate reader analysis; assay type: protein-complex assay; conditions: dose 1-3 µM
MGC-803 [31] = assay: Induction of apoptosis in human MGC-803 cells assessed as necrotic cells at 10 nmol/L incubated for 48 hrs by Annexin V-FITC/propidium iodide staining based flow cytometer analysis (reference value: 0.32 %); assay type: functional

With `COc1ccc2c(c1)CCCN2c1cc(=O)oc2ccccc12` the Activity [1] was “Non-Toxic”, the Activity (MGC-803 [2]) was “Tde” and the Activity [3] was “Non-Toxic”. The Activity (MGC-803 [4]) was “Active”, the Activity [5] was “Non-Toxic” and the IC50 (MGC-803 [6]) was 34 nM. For the same compound, the Activity [7] was “Non-Toxic”, the inhibition (Tubulin (Homo sapiens) [8]) was “Active” and the Activity [9] was “Active”. The Activity (MGC-803 [10]) was 4.68%, the Activity (MGC-803 [11]) was “Active” and the Activity (MGC-803 [12]) was 2.7%. The Activity (MGC-803 [13]) was 9.14%, the viability at 0.02 µM (MGC-803 [14]) was 88% and the Activity (MGC-803 [15]) was 0.226 g. For the same compound, the Activity (MGC-803 [16]) was “Active”, the inhibition in vivo at 30 mg/kg/day (MGC-803 [17]) was 65.5% and the Activity (MGC-803 [18]) was 2.8%. For the same compound, the IC50 (KYSE-30) was 190 nM, the Activity (MGC-803 [19]) was 25% and the Activity (MGC-803 [20]) was “Active”. For the same compound, the Activity (MGC-803 [21]) was “Active”, the Activity [22] was “Non-Toxic” and the Activity (MGC-803 [23]) was “Active”. The Activity (MGC-803 [24]) was “Active”, the Activity [25] was “Active” and the Activity [26] was “Non-Toxic”. The inhibition (MGC-803 [27]) was “Dose-Dependent Effect”, the inhibition (Tubulin (Homo sapiens) [28]) was “Active” and the inhibition (Tubulin (Homo sapiens) [29]) was “Active”. For the same compound, the inhibition (Tubulin (Homo sapiens) [30]) was “Active” and the Activity (MGC-803 [31]) was 0.34%.
